Test results as given in patent US20220308068A1, “BIOMARKER IN OSTEOPOROSIS INTERVENTION THERAPY BY BONE PEPTIDE, SCREENING METHOD AND USE THEREOF” (Institute of Food Science and Technology, Chinese Academy …, priority 2019, published 2022).

What was measured:
[1] = test system: ovariectomized osteoporosis rat model; experiment: serum bone turnover markers by automatic serum biochemical analyzer; assay type: in vivo, SD rats
Description: 1, the construction of ovariectomized rats models: SD rats are kept in a clean environment under a controlled room temperature at 25±2° C. and alternates 12/12 light and dark every day, and the SD rats feed freely. After one week adaptive feeding, randomly select 8 female rats, anesthetize them with 1% (v/v) pentobarbital sodium (40 mg/kg BW), and remove a little fat near ovaries. The remaining 40 rats are ovariectomized after being anesthetized with pentobarbital sodium. The recovery situation is observed in a 4-week recovery period, and their weight changes are detected. These are prepared by the applicant in advance. (any research about metabolic fingerprint changes of ovariectomized osteoporotic rats after intervention with bone peptide have not been reported according to the existing literature). 2, animal grouping and samples collection: the 8 female rats with a little fat near ovaries removed are selected as a sham-operated group, the ovariectomized 40 rats are randomly divided into 5 groups with 8 rats in each group, and are named by a negative control group, a positive control group, a low-concentration treatment group, a medium-concentration treatment group and a high-concentration treatment group. The rats are perfused by different solutions of bovine bone peptide (diluted by ultrapure water, and sterilized) with concentration of 100 mg/kg, 200 mg/kg, and 500 mg/kg according to the weights of the rats. The rats in the negative control group are perfused with equal volume of ultrapure sterile water (a perfusing volume is generally 1-2 mL/100 g BW), and the rats in the positive control group are perfused with 50 μg/kg of 17β-estradiol (ES). Observe weight changes of the rats and measure the weights every two weeks. Urine is automatically collected with a metabolic cage for 12 hours every 4 weeks (the urine is collected as much as possible under the premise of ensuring normal signs of the rats). 1 mmol/L NaN3 solution is added into collected urine as a preservative, the collected urine is placed in a centrifuge at 4° C. and centrifuged at a speed of 10000×g for 10 minutes, and the supernatant is collected, distributed and stored in a refrigerator at −80° C. for determining. The rats are fasted for 12 hours at 4th week, 8th week, and 12th week. Fasted rats are anesthetized by intraperitoneal injection of pentobarbital sodium (40 mg/kg BW) with a volume concentration of 1%, and are subjected to blood collection from the abdominal aorta (the blood is collected as much as possible under the premise of ensuring normal signs of the rats). Collected blood is placed at 4° C. for 3 h and is centrifuged (5000 rpm) for 10 minutes. Upper serum is collected (collecting 2 mL of blood, separating into 4 tubes after separating the serum), is divided into 0.5 mL EP tubes, and stored in a refrigerator at −80° C. for later use. The metabolic cage comprises a cage body with a bottom and a metabolite collecting part. The metabolite collecting part is arranged below the cage body and comprises a barrel 1 and a cover 2 mounted on an upper end of a peripheral wall of a first side of the barrel, an upper end of a peripheral wall of a second side of the barrel is provided with a drainage port, and a solid-liquid separating part is arranged in the barrel. The solid-liquid separating part comprises an arc-shaped partition plate 3 with a first end fixed with a peripheral wall of the barrel and multi-stage filter plates 4, which divide an inner space of the barrel into a first accommodating space and a second accommodating space. The multi-stage filter plates are arranged in the second accommodating space along a vertical direction, and the multi-stage filter plates are successively arranged end to end to form a folded-line diversion channel. A depth of a bottom wall of the barrel from the first side to the second side becomes larger. […]

[2] = test system: ovariectomized osteoporosis rat model; experiment: non-targeted serum metabolomics (UPLC/Q-TOF-MS); assay type: in vivo, SD rats; settings: ES group vs Model group
Description: 1, the construction of ovariectomized rats models: SD rats are kept in a clean environment under a controlled room temperature at 25±2° C. and alternates 12/12 light and dark every day, and the SD rats feed freely. After one week adaptive feeding, randomly select 8 female rats, anesthetize them with 1% (v/v) pentobarbital sodium (40 mg/kg BW), and remove a little fat near ovaries. The remaining 40 rats are ovariectomized after being anesthetized with pentobarbital sodium. The recovery situation is observed in a 4-week recovery period, and their weight changes are detected. These are prepared by the applicant in advance. (any research about metabolic fingerprint changes of ovariectomized osteoporotic rats after intervention with bone peptide have not been reported according to the existing literature).
2, animal grouping and samples collection: the 8 female rats with a little fat near ovaries removed are selected as a sham-operated group, the ovariectomized 40 rats are randomly divided into 5 groups with 8 rats in each group, and are named by a negative control group, a positive control group, a low-concentration treatment group, a medium-concentration treatment group and a high-concentration treatment group. The rats are perfused by different solutions of bovine bone peptide (diluted by ultrapure water, and sterilized) with concentration of 100 mg/kg, 200 mg/kg, and 500 mg/kg according to the weights of the rats. The rats in the negative control group are perfused with equal volume of ultrapure sterile water (a perfusing volume is generally 1-2 mL/100 g BW), and the rats in the positive control group are perfused with 50 μg/kg of 17β-estradiol (ES). Observe weight changes of the rats and measure the weights every two weeks.
Urine is automatically collected with a metabolic cage for 12 hours every 4 weeks (the urine is collected as much as possible under the premise of ensuring normal signs of the rats). 1 mmol/L NaN3 solution is added into collected urine as a preservative, the collected urine is placed in a centrifuge at 4° C. and centrifuged at a speed of 10000×g for 10 minutes, and the supernatant is collected, distributed and stored in a refrigerator at −80° C. for determining. The rats are fasted for 12 hours at 4th week, 8th week, and 12th week. Fasted rats are anesthetized by intraperitoneal injection of pentobarbital sodium (40 mg/kg BW) with a volume concentration of 1%, and are subjected to blood collection from the abdominal aorta (the blood is collected as much as possible under the premise of ensuring normal signs of the rats). Collected blood is placed at 4° C. for 3 h and is centrifuged (5000 rpm) for 10 minutes. Upper serum is collected (collecting 2 mL of blood, separating into 4 tubes after separating the serum), is divided into 0.5 mL EP tubes, and stored in a refrigerator at −80° C. for later use. The metabolic cage comprises a cage body with a bottom and a metabolite collecting part. The metabolite collecting part is arranged below the cage body and comprises a barrel 1 and a cover 2 mounted on an upper end of a peripheral wall of a first side of the barrel, an upper end of a peripheral wall of a second side of the barrel is provided with a drainage port, and a solid-liquid separating part is arranged in the barrel. The solid-liquid separating part comprises an arc-shaped partition plate 3 with a first end fixed with a peripheral wall of the barrel and multi-stage filter plates 4, which divide an inner space of the barrel into a first accommodating space and a second accommodating space. The multi-stage filter plates are arranged in the second accommodating space along a vertical direction, and the multi-stage filter plates are successively arranged end to end to form a folded-line diversion channel. A depth of a bottom wall of the barrel from the first side to the second side becomes larger. […]

[3] = treatment groups and ES group vs Model group
[4] = vs Model group, P<0.05, YBP 100/200/500 mg/kg, ES 50 μg/kg perfused

## C[C@]12CC[C@@H]3c4ccc(O)cc4CC[C@H]3[C@@H]1CC[C@@H]2O [ES, 17β-estradiol]
[1]; [3]
  content of DPD: on a decline trend
  content of PINP: on a decline trend
  content of S-CTX: on a decline trend
  content of TRAP: on a decline trend
[1]; [4]
  content of B-ALP (bone alkaline phosphatase): significantly increased
  content of BGP (bone gamma-carboxyglutamic acid containing proteins): significantly increased
[2]
  serum 1-O-(cis-9-octadecenyl)-2-O-acetyl-sn-glycerol-3-phosphocholine change: up-regulated trend
  serum 1-oleoyl-sn-glycerol-3-phosphocholine change: up-regulated trend
  serum 1-palmitoyl-sn-glycerol-3-phosphocholine change: up-regulated trend
  serum 1-stearoyl-sn-glycerol-3-phosphocholine change: up-regulated trend
  serum L-palmitoyl change: up-regulated trend
  serum L-pyroglutamic acid change: down-regulated trend
  serum isoleucine-arginine change: down-regulated trend
  serum pantothenic acid change: up-regulated trend
